Reference: patent publication US8222244B2, “Staurosporine derivatives as inhibitors of FLT3 receptor tyrosine kinase activity” (Novartis AG, priority 2001, dated 2012)

Molecular target: T1, human Flt-3 (Homo sapiens, UniProt P36888)
T1 construct: expresses the amino acid region amino acids 563-993 of the intra-cytoplasmic kinase domains of human Flt-3; made in house; host or cells: Sf9 insect cells (baculovirus, pFbacG01 donor vector)
T1 sequence (P36888 563-993): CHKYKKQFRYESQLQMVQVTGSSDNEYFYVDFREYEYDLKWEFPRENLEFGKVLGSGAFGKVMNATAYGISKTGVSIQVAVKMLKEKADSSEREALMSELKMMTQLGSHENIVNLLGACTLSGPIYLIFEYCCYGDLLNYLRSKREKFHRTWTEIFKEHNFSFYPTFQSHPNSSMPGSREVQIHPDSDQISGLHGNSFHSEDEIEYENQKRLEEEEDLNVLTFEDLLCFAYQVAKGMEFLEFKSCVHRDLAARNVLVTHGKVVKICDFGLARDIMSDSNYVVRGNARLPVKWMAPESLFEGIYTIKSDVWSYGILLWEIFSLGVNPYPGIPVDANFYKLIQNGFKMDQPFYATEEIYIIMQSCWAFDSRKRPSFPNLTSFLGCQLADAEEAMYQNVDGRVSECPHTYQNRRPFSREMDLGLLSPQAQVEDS
Assay: Tyrosine protein kinase assay with purified GST-Flt-3 (33P incorporation)
Format: biochemical
Settings: at a 1.0 micromolar concentration
Description: ATP into appropriate substrates.
The coding sequences for the cytoplasmic domain of Flt-3 was amplified by PCR from human c-DNA libraries (Clontech). The amplified DNA fragments and the pFbacG01 vector were made compatible for ligation by digestion with BamH1 and Hind III. […] The production of the viruses, the expression of proteins in Sf9 cells and the purification of the GST-fused proteins were performed as following:
(Generation of Bac- to Bac GST-fusion vectors); pFbacG01, pFbacGST2T and pFbacGSTx3 Bac-to-Bac™ donor vectors were generated from pAcG1, pAcG2T and pAcG3X respectively, which facilitate the expression of GST-fusion proteins with the possibility of cleavage with thrombin (pFbacGT2) or factor Xa (pFbacGSTx3) while pFbacG01 expresses no proteolytic cleavage site. These were generated in house by isolation of the DNA fragment containing the gene for GST with the C-terminal protease and restriction sites by restriction enzyme digestion of the relevant PharMingen baculovirus donor vector with EcoRV and EcoRI. This EcoRV/EcoRI fragment was ligated into the pFastBac1 vector which had been restriction digested with BamHI, blunt-ended by Klenow reaction and subsequently digested with EcoRI to generate a blunt-ended/EcoRI vector. (Production of virus); Transfer vectors containing the kinase domains were transfected into the DH10Bac cell line (GIBCO) and plated on selective agar plates. Colonies without insertion of the fusion sequence into the viral genome (carried by the bacteria) are blue. Single white colonies were picked and viral DNA (bacmid) isolated from the bacteria by standard plasmid purification procedures. Sf9 cells or Sf21 cells were then transfected in 25 cm^2 flasks with the viral DNA using Cellfectin reagent. (Determination of small scale protein expression in Sf9 cells); Virus containing media was collected from the transfected cell culture and used for infection to increase its titer. Virus containing media obtained after two rounds of infection was used for large-scale protein expression. For large-scale protein expression 100 cm^2 round tissue culture plates were seeded with 5×10^7 cells/plate and infected with 1 mL of virus-containing media (approx. 5 MOIs). After 3 days the cells were scraped off the plate and centrifuged at 500 rpm for 5 min. Cell pellets from 10-20, 100 cm^2 plates, were resuspended in 50 mL of ice-cold lysis buffer (25 mMTris-HCl, pH7.5, 2 mMEDTA, 1% NP-40, 1 mM DTT, 1 mMP MSF). The cells were stirred on ice for 15 min and then centrifuged at 5000 rpms for 20 min.
ATP 0.1 μCi). […] ATP into appropriate substrates. […] Subsequently, 40 μL of the reaction mixture were transferred onto Immobilon-PVDF membrane (Millipore, Bedford, Mass., USA) previously soaked for 5 min with methanol, rinsed with water, then soaked for 5 min with 0.5% H3PO4 and mounted on vacuum manifold with disconnected vacuum source. After spotting all samples, vacuum was connected and each well rinsed with 200 μL 0.5% H3PO4. Membranes were removed and washed 4× on a shaker with 1.0% H3PO4, once with ethanol. Membranes were counted after drying at ambient temperature, mounting in Packard TopCount 96-well frame, and addition of 10 μL/well of Microscint™ (Packard). […] One unit of protein kinase activity is defined as 1 nmole of ^33P ATP transferred from [γ^33P] ATP to the substrate protein per minute per mg of protein at 37° C.

Row | Flt3 Inhibition (percent inhibition of Flt3 kinase activity) [%] | Molecule
1 | 61 | (9a,10b,11b,13a)-11-[[N-Acetyl-6-azido-6-deoxy-1-O-(phenylmethyl)-a-muramoyl]methylamino]-2,3,10,11,12,13-hexahydro-10-methoxy-9-methyl-,9,13-epoxy-1H,9H-diindolo[1,2,3-gh:3′,2′,1′-lm]pyrrolo[3,4-j][1,7]benzodiazonin-1-one [149622-42-4]
2 | 66 | 11-[[N-Acetyl-1-O-methyl-4,6-O-(phenylmethylene)-a-normuramoyl]methylamino]-2,3,10,11,12,13-hexahydro-10-methoxy-9-methyl-9,13-epoxy-1H,9H-diindolo[1,2,3-gh:3′,2′,1′-lm]pyrrolo[3,4-j][1,7]benzodiazonin-1-one [149622-43-5]
3 | 70 | (9a,10b,11b,13a)-11-[[N-Acetyl-4,6-di-O-acetyl-1-O-(phenylmethyl)-a-muramoyl]methylamino]-2,3,10,11,12,13-hexahydro-10-methoxy-9-methyl-9,13-epoxy-1H,9H-diindolo[1,2,3-gh:3′,2′,1′-lm]pyrrolo[3,4-j][1,7]benzodiazonin-1-one [149622-61-7]
4 | 27 | (9a,10b,11b,13a)-11-[[N-Acetyl-4-O-acetyl-6-O-(1-oxooctadecyl)-a-muramoyl]methylamino]-2,3,10,11,12,13-hexahydro-10-methoxy-9-methyl-9,13-epoxy-1H,9H-diindolo[1,2,3-gh:3′,2′,1′-lm]pyrrolo[3,4-j][1,7]benzodiazonin-1-one [149622-64-0]
5 | 67 | (9a,10b,11b,13a)-11-[[N-Acetyl-1-deoxy-6-O-[(4-methylphenyl)sulfonyl]muramoyl]methylamino]-2,3,10,11,12,13-hexahydro-10-methoxy-9-methyl-, 9,13-epoxy-1H,9H-diindolo[1,2,3-gh:3′,2′,1′-lm]pyrrolo[3,4-j][1,7]benzodiazonin-1-one [149622-70-8]
6 | 77 | COC1C(=NOC(C)=O)CC2OC1(C)n1c3ccccc3c3c4c(c5c6ccccc6n2c5c31)C(=O)NC4 (stereo not drawn) [187457-78-9, [9S-(9a,10b,13a)]-2,3,9,10,12,13-Hexahydro-10-methoxy-9-methyl-9,13-epoxy-1H,11H-diindolo[1,2,3-gh:3′,2′,1′-lm]pyrrolo[3,4-j][1,7]benzodiazonine-1,11-dione, 11-(O-acetyloxime)]
7 | 94 | (9a,10b,11b,13a)-11-[[N-Acetyl-6-O-(methylsulfonyl)-a-muramoyl]methylamino]-2,3,10,11,12,13-hexahydro-10-methoxy-9-methyl-9,13-epoxy-1H,9H-diindolo[1,2,3-gh:3′,2′,1′-lm]pyrrolo[3,4-j][1,7]benzodiazonin-1-one [149622-54-8]
8 | 63 | CO[C@@H]1[C@H](N(C)C(=O)c2ccccc2)C[C@H]2O[C@]1(C)n1c3ccccc3c3c4c(c5c6ccccc6n2c5c31)C(=O)NC4=O [154589-96-5, [9S-(9a,10b,11b,13a)]-N-(2,3,10,11,12,13-Hexahydro-10-methoxy-9-methyl-1,3-dioxo-9,13-epoxy-1H,9H-diindolo[1,2,3-gh:3′,2′,1′-lm]pyrrolo[3,4-j][1,7]benzodiazonin-11-yl)-N-methyl-benzamide]
9 | 76 | (9a,10b,11b,13a)-11-[[N-Acetyl-1-O-(phenylmethyl)-a-isomuramoyl]methylamino]-2,3,10,11,12,13-hexahydro-10-methoxy-9-methyl-9,13-epoxy-1H,9H-diindolo[1,2,3-gh:3′,2′,1′-lm]pyrrolo[3,4-j][1,7]benzodiazonin-1-one [149713-64-4]
10 | 77 | (9a,10b,11b,13a)-11-[[N-Acetyl-4,6-O-(1-methylethylidene)-1-O-(phenylmethyl)-a-isomuramoyl]methylamino]-2,3,10,11,12,13-hexahydro-9-methyl-10-methoxy-9,13-epoxy-1H,9H-diindolo[1,2,3-gh:3′,2′,1′-lm]pyrrolo[3,4-j][1,7]benzodiazonin-1-one [149622-59-3]

Second part, the molecule before the results:

Row | Molecule | Flt3 Inhibition (percent inhibition of Flt3 kinase activity) [%]
11 | COC1C(N(C)C(=O)C(C)OC2CCOCC2)CC2OC1(C)n1c3ccccc3c3c4c(c5c6ccccc6n2c5c31)C(=O)NC4 (stereo not drawn) [160335-31-9, [9S-[9a,10b,11b(R*),13a]]-N-(2,3,10,11,12,13-Hexahydro-10-methoxy-9-methyl-1-oxo-9,13-epoxy-1H,9H-diindolo[1,2,3-gh:3′,2′,1′-lm]pyrrolo[3,4-j][1,7]benzodiazonin-11-yl)-N-methyl-2-[(tetrahydro-2H-pyran-4-yl)oxy]-propanamide] | 90
12 | COC(=O)CN(C)C1CC2OC(C)(C1OC)n1c3ccccc3c3c4c(c5c6ccccc6n2c5c31)C(=O)NC4 (stereo not drawn) [120685-21-4, [9S-(9a,10b,11b,13a)]-N-(2,3,10,11,12,13-Hexahydro-10-methoxy-9-methyl-1-oxo-9,13-epoxy-1H,9H-diindolo[1,2,3-gh:3′,2′,1′-lm]pyrrolo[3,4-j][1,7]benzodiazonin-11-yl)-N-methyl-glycine, methyl ester] | 82
13 | [9S-(9a,10b,11b,13a)]-N-(2,3,10,11,12,13-Hexahydro-10-methoxy-9-methyl-1-oxo-9,13-epoxy-1H,9H-diindolo[1,2,3-gh:3′,2′,1′-lm]pyrrolo[3,4-j][1,7]benzodiazonin-11-yl)-N-methyl-2-[(tetrahydro-2H-pyran-4-yl)oxy]-acetamide [160251-52-5] | 94
14 | (2,3,10,11,12,13-hexahydro-10-methoxy-9-methyl-1-oxo-9,13-epoxy-1H,9H-diindolo[1,2,3-gh:3′,2′,1′-lm]pyrrolo[3,4-j][1,7]benzodiazonin-11-yl)methyl-carbamic acid, phenylmethyl ester [159404-67-8] | 64
15 | COC1C(N(C)C(=O)c2cc([N+](=O)[O-])cc([N+](=O)[O-])c2)CC2OC1(C)n1c3ccccc3c3c4c(c5c6ccccc6n2c5c31)C(=O)NC4 (stereo not drawn) [120685-18-9, [9S-(9a,10b,11b,13a)]-N-(2,3,10,11,12,13-Hexahydro-10-methoxy-9-methyl-1-oxo-9,13-epoxy-1H,9H-diindolo[1,2,3-gh:3′,2′,1′-lm]pyrrolo[3,4-j][1,7]benzodiazonin-11-yl)-N-methyl-3,5-dinitro-benzamide] | 63
16 | COC1C(N(C)C(=O)CCN)CC2OC1(C)n1c3ccccc3c3c4c(c5c6ccccc6n2c5c31)C(=O)NC4.Cl (stereo not drawn) [124078-41-7, [9S-(9a,10b,11b,13a)]-3-Amino-N-(2,3,10,11,12,13-hexahydro-10-methoxy-9-methyl-1-oxo-9,13-epoxy-1H,9H-diindolo[1,2,3-gh:3′,2′,1′-lm]pyrrolo[3,4-j][1,7]benzodiazonin-11-yl)-N-methyl-propanamide, monohydrochloride] | 99
